Active and inactive are the calls of the source.
Legend:
[1] = molecular target: Dual specificity protein kinase CLK2 (Homo sapiens, UniProt P49760); format: functional
[2] = molecular target: Leucine-rich repeat serine/threonine-protein kinase 2 (Homo sapiens, UniProt Q5S007); format: functional;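 further: value from a broad kinome-wide panel profiling study in which LRRK2 was one of the kinases tested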
[3] = molecular target: Focal adhesion kinase 1 (Homo sapiens, UniProt Q05397); format: functional;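 further: measured as one member of a kinome panel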
Sequence of Focal adhesion kinase 1 (Q05397 whole entry): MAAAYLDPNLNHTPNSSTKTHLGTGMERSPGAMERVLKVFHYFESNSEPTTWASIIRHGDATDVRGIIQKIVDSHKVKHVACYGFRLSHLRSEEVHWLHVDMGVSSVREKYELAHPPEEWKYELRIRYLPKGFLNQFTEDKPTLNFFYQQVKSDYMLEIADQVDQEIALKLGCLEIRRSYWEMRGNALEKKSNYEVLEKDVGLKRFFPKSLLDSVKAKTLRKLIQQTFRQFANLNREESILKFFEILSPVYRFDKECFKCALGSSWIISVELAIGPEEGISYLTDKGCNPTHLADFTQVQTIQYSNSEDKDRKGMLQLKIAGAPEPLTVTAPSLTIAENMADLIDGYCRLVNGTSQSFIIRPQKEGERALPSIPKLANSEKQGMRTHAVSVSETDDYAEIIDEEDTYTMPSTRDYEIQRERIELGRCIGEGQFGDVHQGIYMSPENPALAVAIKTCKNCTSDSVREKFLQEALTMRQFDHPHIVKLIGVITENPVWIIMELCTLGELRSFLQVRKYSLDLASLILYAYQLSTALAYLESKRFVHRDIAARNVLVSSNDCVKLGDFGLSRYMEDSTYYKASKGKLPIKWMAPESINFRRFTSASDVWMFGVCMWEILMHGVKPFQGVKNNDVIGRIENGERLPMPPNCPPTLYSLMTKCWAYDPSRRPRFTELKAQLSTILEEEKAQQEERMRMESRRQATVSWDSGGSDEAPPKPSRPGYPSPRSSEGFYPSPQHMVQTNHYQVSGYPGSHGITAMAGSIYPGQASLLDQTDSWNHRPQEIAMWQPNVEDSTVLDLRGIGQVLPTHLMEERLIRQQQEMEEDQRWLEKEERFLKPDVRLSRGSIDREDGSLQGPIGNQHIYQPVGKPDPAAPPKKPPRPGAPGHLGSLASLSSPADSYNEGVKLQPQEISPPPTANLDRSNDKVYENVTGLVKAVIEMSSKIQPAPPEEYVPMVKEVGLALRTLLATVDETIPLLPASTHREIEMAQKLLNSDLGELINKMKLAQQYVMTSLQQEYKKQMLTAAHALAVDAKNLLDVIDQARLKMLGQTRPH

[4] = molecular target: Tyrosine-protein kinase Fyn (Homo sapiens, UniProt P06241); format: functional
Sequence of Tyrosine-protein kinase Fyn (P06241 whole entry): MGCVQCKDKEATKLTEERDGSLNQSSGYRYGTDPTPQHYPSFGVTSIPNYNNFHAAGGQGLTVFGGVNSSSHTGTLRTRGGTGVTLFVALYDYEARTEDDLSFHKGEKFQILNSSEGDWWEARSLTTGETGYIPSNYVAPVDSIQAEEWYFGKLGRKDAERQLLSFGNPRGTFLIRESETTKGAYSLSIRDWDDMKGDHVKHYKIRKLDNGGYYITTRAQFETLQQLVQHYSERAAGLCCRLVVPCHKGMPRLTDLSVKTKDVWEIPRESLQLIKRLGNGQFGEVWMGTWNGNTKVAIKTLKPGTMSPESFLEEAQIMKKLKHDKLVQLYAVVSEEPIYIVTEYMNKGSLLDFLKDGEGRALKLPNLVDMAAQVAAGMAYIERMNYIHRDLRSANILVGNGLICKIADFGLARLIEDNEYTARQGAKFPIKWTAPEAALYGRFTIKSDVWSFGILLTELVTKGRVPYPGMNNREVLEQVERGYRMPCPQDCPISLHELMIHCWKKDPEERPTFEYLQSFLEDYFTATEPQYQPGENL

[5] = molecular target: Leukocyte tyrosine kinase receptor (Homo sapiens, UniProt P29376); assay: Navigating the Kinome. Panel member name: LTK; format: functional
[6] = molecular target: Inhibitor of nuclear factor kappa-B kinase subunit epsilon (Homo sapiens, UniProt Q14164); assay: Navigating the Kinome. Panel member name: IKBKE; format: functional
[7] = molecular target: Genome polyprotein (dengue virus type 2, UniProt P29990); assay: flavivirus cap methylation enzyme inhibition – biochemical, confirmation dose response, primary screen (AID 588689); format: functional
[8] = molecular target: T1, Hexokinase HKDC1 (Homo sapiens, UniProt Q2TB90); assay: inhibition of HKDC1 glucose phosphorylation – biochemical, W721R variant, dose response (AID 504729); format: functional
T1 sequence (Q2TB90 whole entry): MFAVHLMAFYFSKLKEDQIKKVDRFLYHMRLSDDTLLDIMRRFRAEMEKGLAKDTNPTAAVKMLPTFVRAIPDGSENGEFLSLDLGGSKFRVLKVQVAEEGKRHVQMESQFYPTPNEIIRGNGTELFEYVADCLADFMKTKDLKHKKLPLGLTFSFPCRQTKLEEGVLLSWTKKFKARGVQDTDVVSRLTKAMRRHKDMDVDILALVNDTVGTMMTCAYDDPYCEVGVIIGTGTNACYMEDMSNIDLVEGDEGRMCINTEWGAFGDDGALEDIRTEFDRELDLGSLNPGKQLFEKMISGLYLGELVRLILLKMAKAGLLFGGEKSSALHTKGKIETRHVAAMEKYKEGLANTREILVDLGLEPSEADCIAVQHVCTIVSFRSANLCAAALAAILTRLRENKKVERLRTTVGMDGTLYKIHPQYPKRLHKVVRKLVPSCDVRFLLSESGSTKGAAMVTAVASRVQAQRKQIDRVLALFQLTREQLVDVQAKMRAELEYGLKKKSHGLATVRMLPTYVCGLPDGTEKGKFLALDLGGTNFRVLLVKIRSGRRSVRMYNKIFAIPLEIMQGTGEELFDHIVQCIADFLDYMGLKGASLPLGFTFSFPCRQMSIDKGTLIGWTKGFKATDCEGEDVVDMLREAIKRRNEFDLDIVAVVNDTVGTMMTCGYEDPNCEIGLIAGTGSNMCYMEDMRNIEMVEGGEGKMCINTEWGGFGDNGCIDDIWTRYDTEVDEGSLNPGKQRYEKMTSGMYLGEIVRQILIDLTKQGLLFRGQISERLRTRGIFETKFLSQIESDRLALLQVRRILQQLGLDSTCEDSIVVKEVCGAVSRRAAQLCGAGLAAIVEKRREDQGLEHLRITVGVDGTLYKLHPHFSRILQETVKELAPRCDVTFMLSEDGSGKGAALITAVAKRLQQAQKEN

[9] = viability loss in HeLa cells – cytotoxicity control for MgcRacGAP inhibitor project, dose response (AID 624300); format: functional
[10] = molecular target: T2, Rac GTPase-activating protein 1 (Homo sapiens, UniProt Q9H0H5); assay: blockers of MgcRacGAP-driven Rac1 GTP hydrolysis – biochemical, ADP Hunter fluorescence, primary and confirmatory, confirmation (AID 624330); format: functional
T2 sequence (Q9H0H5 whole entry): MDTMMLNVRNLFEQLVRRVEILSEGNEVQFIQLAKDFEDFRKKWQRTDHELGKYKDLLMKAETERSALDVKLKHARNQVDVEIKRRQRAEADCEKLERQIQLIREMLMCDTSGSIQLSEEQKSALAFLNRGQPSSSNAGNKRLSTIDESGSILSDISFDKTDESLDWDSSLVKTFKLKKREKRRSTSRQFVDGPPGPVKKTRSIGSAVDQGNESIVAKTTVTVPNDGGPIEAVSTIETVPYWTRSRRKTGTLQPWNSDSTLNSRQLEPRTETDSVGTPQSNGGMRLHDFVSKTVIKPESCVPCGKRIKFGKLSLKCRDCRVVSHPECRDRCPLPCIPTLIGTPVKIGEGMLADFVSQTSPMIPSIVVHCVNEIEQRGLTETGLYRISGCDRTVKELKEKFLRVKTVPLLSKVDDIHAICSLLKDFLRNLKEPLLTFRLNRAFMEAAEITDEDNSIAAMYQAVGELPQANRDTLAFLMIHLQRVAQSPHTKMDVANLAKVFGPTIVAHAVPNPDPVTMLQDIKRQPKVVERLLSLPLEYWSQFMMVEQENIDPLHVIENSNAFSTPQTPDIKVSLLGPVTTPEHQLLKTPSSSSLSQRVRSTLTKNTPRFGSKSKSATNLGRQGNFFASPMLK

[11] = molecular target: DNA dC->dU-editing enzyme APOBEC-3A (Homo sapiens, UniProt P31941); assay: A3A deaminase inhibition for selectivity – biochemical, dose response (AID 504722); format: functional
Sequence of DNA dC->dU-editing enzyme APOBEC-3A (P31941 whole entry): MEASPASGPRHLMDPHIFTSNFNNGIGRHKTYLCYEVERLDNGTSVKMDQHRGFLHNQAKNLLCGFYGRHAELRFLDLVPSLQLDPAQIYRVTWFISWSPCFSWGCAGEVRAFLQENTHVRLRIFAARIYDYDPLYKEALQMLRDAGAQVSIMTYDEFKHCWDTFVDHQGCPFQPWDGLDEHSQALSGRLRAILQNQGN

[12] = molecular target: T3, Serine/threonine-protein phosphatase (Homo sapiens, UniProt Q9BPW0); assay: Counterscreen for inhibitors of PP1: fluorescence-based biochemical high throughput dose response assay to identify inhibitors of Protein Phosphatase 5 (PP5). [Related pubchem assays: 2034 (Summary (PP5 inhibitors)), 1987 (PP5 inhibitors in singlate), 2235 (PP1 inhibitors in singlate)]
T3 sequence (Q9BPW0 whole entry): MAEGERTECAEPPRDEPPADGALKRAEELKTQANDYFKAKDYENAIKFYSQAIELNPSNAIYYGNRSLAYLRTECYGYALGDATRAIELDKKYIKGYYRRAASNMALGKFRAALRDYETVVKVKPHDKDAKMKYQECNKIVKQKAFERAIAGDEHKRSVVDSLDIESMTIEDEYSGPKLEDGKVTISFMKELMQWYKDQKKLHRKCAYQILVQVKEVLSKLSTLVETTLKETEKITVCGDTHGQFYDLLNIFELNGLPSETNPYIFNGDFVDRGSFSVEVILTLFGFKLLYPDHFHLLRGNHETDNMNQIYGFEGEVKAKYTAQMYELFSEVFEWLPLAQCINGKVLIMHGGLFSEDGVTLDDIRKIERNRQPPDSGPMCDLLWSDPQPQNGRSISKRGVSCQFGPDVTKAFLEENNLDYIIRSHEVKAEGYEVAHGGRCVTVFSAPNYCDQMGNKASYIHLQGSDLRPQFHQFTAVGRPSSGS

Sequence of Leucine-rich repeat serine/threonine-protein kinase 2 (Q5S007 whole entry): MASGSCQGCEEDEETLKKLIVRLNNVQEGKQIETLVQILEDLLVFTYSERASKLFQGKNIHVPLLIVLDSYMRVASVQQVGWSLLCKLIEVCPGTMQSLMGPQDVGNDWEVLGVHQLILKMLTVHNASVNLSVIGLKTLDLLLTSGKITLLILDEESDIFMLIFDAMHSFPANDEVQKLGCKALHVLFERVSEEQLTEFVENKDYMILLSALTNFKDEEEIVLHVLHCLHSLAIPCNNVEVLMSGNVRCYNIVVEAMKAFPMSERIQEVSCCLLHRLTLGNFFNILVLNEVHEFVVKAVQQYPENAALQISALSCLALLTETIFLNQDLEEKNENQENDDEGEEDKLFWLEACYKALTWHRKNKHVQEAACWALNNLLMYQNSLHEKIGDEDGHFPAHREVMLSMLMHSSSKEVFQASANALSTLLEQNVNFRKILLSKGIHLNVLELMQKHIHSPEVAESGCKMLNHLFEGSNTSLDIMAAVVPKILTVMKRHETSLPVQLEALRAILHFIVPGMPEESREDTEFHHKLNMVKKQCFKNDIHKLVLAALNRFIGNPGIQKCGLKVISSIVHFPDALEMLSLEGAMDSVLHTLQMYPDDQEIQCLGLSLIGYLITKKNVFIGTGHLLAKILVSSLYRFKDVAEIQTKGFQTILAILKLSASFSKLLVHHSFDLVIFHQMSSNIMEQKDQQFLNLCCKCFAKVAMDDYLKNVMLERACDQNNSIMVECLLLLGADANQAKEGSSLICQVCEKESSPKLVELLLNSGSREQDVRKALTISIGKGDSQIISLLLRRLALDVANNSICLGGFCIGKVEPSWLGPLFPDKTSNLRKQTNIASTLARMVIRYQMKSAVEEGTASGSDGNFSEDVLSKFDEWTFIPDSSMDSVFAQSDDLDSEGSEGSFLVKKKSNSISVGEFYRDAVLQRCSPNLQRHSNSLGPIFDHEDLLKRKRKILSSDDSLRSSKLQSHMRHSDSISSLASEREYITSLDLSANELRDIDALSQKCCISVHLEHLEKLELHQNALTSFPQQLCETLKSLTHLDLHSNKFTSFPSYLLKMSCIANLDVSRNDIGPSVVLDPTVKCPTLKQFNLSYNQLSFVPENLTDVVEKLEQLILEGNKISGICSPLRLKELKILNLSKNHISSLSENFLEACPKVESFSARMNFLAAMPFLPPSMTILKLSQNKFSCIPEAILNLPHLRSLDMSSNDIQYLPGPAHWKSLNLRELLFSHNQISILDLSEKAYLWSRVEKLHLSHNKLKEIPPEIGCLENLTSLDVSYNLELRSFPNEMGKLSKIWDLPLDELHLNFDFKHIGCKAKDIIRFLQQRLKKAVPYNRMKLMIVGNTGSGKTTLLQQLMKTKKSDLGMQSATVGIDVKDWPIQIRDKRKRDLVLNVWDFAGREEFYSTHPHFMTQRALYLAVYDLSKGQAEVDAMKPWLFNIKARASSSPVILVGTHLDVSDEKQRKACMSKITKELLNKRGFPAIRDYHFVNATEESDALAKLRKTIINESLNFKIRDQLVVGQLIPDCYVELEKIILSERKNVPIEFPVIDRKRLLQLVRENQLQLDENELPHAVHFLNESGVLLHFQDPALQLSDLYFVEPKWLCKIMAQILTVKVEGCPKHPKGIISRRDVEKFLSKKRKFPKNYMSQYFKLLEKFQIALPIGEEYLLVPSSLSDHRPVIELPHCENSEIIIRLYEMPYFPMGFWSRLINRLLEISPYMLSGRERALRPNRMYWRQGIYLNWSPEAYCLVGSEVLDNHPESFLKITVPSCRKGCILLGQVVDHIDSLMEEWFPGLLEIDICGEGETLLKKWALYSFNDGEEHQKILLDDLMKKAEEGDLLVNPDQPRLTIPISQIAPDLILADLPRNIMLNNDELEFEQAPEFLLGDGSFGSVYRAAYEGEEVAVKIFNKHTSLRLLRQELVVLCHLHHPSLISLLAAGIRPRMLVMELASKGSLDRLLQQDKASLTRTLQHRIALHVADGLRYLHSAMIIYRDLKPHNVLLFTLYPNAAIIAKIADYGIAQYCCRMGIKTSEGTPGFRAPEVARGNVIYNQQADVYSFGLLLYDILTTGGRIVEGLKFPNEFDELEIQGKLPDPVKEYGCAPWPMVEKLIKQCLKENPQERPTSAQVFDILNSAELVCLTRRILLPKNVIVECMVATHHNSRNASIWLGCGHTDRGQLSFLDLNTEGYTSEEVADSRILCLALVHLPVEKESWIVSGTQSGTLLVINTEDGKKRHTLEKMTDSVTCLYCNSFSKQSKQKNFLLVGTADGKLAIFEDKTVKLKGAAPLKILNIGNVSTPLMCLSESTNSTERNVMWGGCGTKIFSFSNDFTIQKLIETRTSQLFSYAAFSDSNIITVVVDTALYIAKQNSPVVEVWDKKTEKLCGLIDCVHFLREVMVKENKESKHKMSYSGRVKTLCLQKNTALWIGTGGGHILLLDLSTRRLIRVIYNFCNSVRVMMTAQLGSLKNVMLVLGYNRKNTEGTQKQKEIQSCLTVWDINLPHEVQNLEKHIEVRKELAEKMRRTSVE
Sequence of Dual specificity protein kinase CLK2 (P49760 whole entry): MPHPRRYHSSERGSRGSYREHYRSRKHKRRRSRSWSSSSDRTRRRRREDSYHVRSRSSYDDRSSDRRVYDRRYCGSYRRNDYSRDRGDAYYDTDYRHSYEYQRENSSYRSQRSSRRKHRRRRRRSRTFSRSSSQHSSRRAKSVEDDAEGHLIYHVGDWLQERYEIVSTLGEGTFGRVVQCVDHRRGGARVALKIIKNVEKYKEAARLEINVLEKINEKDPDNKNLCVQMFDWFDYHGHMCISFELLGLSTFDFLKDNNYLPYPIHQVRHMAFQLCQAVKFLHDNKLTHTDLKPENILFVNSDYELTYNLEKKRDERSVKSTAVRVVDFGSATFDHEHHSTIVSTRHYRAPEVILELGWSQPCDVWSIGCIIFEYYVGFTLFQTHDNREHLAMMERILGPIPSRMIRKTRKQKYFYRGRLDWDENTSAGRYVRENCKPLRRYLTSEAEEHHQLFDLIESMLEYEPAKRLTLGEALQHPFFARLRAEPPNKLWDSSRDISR

For Cc1ccc(-c2cc3nc(Br)cnc3[nH]2)cc1, the Ki [1] was > 3.98 µM (inactive), the Ki [2] was > 2.51 µM (inactive) and the Ki [3] was > 6.31 µM (inactive). The Ki [4] was > 6.31 µM (inactive), the Ki [5] was > 2.51 µM (inactive) and the Ki [6] was > 3.16 µM (inactive).
With CC(=O)N(C1=C(Cl)C(=O)c2ccccc2C1=O)c1ccc(C(=O)O)cc1 the IC50 [7] was 5.89 µM (active), the IC50 [8] was 6.23 µM (active) and the CC50 [9] was 36.1 µM (active). The IC50 [10] was 165 µM (active) and the IC50 [11] was > 100 µM (inactive).
For CC1(C)C=C2C(=NN(c3ccccc3)C(N)=C2C#N)CO1, the IC50 [12] was > 0.828 µM (active).

From ChEMBL document CHEMBL1201862, “PubChem BioAssay data set” (2004)
